The results in this text go back to patent US10611740B2, “Aryl dihydro-2H-benzo[b][1,4]oxazine sulfonamide and related compounds for use as agonists of RORγ and the treatment of disease” (Lycera Corporation, priority 2015, dated 2020).

The target in test [1] is T1, Gal4-RORγ-LBD (Homo sapiens, UniProt P51449).
T1 construct: expressed in transfected cells; host or cells: HEK-293 cells (pcDNA3.1neo plasmid)
T1 sequence (P51449 269-508 limits assumed): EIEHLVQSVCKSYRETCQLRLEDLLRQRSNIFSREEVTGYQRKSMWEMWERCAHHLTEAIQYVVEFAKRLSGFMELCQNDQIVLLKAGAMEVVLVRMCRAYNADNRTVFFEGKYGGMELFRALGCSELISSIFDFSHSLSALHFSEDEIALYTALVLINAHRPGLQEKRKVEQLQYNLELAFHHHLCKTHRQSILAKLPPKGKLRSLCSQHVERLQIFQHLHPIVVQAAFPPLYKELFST
Kind of test: Gal4-RORγ Luciferase Reporter Assay in HEK-293T Cells. It counts as cell-based. The following applies: HEK-293 cells. The method, boiled down:
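Luminescence read-out (One-Glo, 10 min RT) after overnight compound exposure at 37 °C in HEK-293 cells carrying Gal4-RORγ-LBD plus a Gal4-luciferase reporter, in the presence of 2 μM ursolic acid. Max Response is the upper plateau from a 4-parameter logistic fit, normalized to untreated signal = 100.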
A general note: Reporter assays use an easily measured gene product as a stand-in for the process of interest.

Test [2] deals with T2, RORγ-LBD (Homo sapiens, UniProt P51449).
T2 construct: made in house; host or cells: SF9 cells (baculovirus)
T2 sequence (P51449 269-508 limits assumed): T1 sequence (P51449 269-508 limits assumed)
Kind of test: RORγ-Ligand Binding Domain (LBD) TR-FRET Assay.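 On TR-FRET Assay Max Response: 665/615 nm ratio relative to signal without ursolic acid or compound set at 100.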 It counts as biochemical. In outline: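 TR-FRET read-out using a biotin-tagged SRC1 coactivator LXXLL peptide (200 nM final), with the antagonist ursolic acid present at 2 μM final. Receptor is His-tagged LBD expressed in SF9 cells, ~3 nM final in pH 7.0 Tris/KCl/EDTA/DTT/BSA buffer; compounds in 1% DMSO final.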
Background: In TR-FRET formats the signal depends on donor and acceptor labels being close together.

Where [3] appears, read: luciferase reporter, with 2 μM ursolic acid.

As a reminder, the EC50 is the concentration that produces a half-maximal response.

Structures are written as SMILES.

For the compound `Cc1ncc(F)cc1-c1ccc2c(c1)N(S(=O)(=O)c1cccc(C(F)(F)F)c1)C[C@H](CCC(=O)O)O2` [Compound 4AF, (S)-3-(6-(5-fluoro-2-methylpyridin-3-yl)-4-((3-(trifluoromethyl)phenyl)sulfonyl)-3,4-dihydro-2H-benzo[b][1,4]oxazin-2-yl)propanoic acid], in test [1] (setting [3]), the EC50 is below 500 nM and the “Gal4-RORγ Assay Max Response” value is “** (The symbol “**” indicates a value in the range of greater than 90 to 150)”. Also, in test [2], the EC50 was below 500 nM and the “TR-FRET Assay Max Response” value is recorded as “**** (The symbol “****” indicates a value greater than 200)”.

Regarding `O=C(O)CC[C@H]1CN(S(=O)(=O)c2cccc(C(F)(F)F)c2)c2cc(-c3cccn4ccnc34)ccc2O1` [Compound 4J, (S)-3-(6-(imidazo[1,2-a]pyridin-8-yl)-4-((3-(trifluoromethyl)-phenyl)sulfonyl)-3,4-dihydro-2H-benzo[b][1,4]oxazin-2-yl)propanoic acid], in test [1] (setting [3]), the EC50 fell in the range of 500 to 5000 nM and the “Gal4-RORγ Assay Max Response” value is given as “** (The symbol “**” indicates a value in the range of greater than 90 to 150)”. Moreover, in test [2], the EC50 is below 500 nM and the “TR-FRET Assay Max Response” value is “**** (The symbol “****” indicates a value greater than 200)”.

For the compound `COc1cc(F)cc(-c2ccc3c(c2)N(S(=O)(=O)c2cccc(C(F)(F)F)c2)C[C@H](CCC(=O)O)O3)c1F` [Compound 4AZ, (S)-3-(6-(2,5-difluoro-3-methoxyphenyl)-4-((3-(trifluoromethyl)phenyl)-sulfonyl)-3,4-dihydro-2H-benzo[b][1,4]oxazin-2-yl)propanoic acid], in test [1] (setting [3]), the EC50 was below 500 nM and the “Gal4-RORγ Assay Max Response” value was “** (The symbol “**” indicates a value in the range of greater than 90 to 150)”. Moreover, in test [2], the EC50 was below 500 nM and the “TR-FRET Assay Max Response” value was “**** (The symbol “****” indicates a value greater than 200)”.

As for `O=C(O)CC[C@H]1CN(S(=O)(=O)c2cccc(C(F)(F)F)c2)c2cc(-c3cccc(Cl)c3)c(Cl)cc2O1` [Compound 7, (S)-3-(7-chloro-6-(3-chlorophenyl)-4-((3-(trifluoromethyl)phenyl)sulfonyl)-3,4-dihydro-2H-benzo[b][1,4]oxazin-2-yl)propanoic acid], in test [1] (setting [3]), the EC50 was below 500 nM and the “Gal4-RORγ Assay Max Response” value is “** (The symbol “**” indicates a value in the range of greater than 90 to 150)”. Also, in test [2], the EC50 was below 500 nM and the “TR-FRET Assay Max Response” value is on record as “**** (The symbol “****” indicates a value greater than 200)”.

As to `C[C@H](O)C(=O)NC[C@H]1CN(S(=O)(=O)c2cccc(C(F)(F)F)c2)c2cc(-c3cc(F)ccc3F)ccc2O1` [Compound 30AE, (S)-N-(((S)-6-(2,5-difluoro-phenyl)-4-((3-(trifluoromethyl)-phenyl)sulfonyl)-3,4-dihydro-2H-benzo[b][1,4]oxazin-2-yl)-methyl)-2-hydroxypropanamide], in test [1] (setting [3]), the EC50 is below 500 nM and the “Gal4-RORγ Assay Max Response” value is reported as “** (The symbol “**” indicates a value in the range of greater than 90 to 150)”. For the same compound, in test [2], the EC50 was below 500 nM and the “TR-FRET Assay Max Response” value is reported as “*** (The symbol “***” indicates a value in the range of greater than 150 to 200)”.

As to `CC(=O)N[C@H]1C[C@](C[C@H]2CN(S(=O)(=O)c3cccc(C(F)(F)F)c3)c3cc(-c4cc(F)cc(OC(F)F)c4)ccc3O2)(C(=O)O)C1` [Compound 85, (1r,3S)-3-acetamido-1-(((S)-6-(3-(difluoromethoxy)-5-fluorophenyl)-4-((3-(trifluoromethyl)phenyl)sulfonyl)-3,4-dihydro-2H-benzo[b][1,4]oxazin-2-yl)methyl)cyclobutane-1-carboxylic Acid], in test [1] (2 μM ursolic acid), the EC50 was below 500 nM and the “Gal4-RORγ Assay Max Response” value is on record as “** (The symbol “**” indicates a value in the range of greater than 90 to 150)”. Besides, in test [2], the EC50 is below 500 nM and the “TR-FRET Assay Max Response” value is listed as “** (The symbol “**” indicates a value in the range of greater than 90 to 150)”.

In the case of `CC(C)(CC[C@H]1CN(S(=O)(=O)c2cccc(OC(F)F)c2)c2cc(-c3cc(F)ccc3F)ccc2O1)C(=O)O` [Compound 32T, (S)-4-(4-((3-(difluoro-methoxy)phenyl)sulfonyl)-6-(2,5-difluorophenyl)-3,4-dihydro-2H-benzo[b][1,4]oxazin-2-yl)-2,2-dimethylbutanoic acid], in test [1] (2 μM ursolic acid), the EC50 was below 500 nM and the “Gal4-RORγ Assay Max Response” value is “** (The symbol “**” indicates a value in the range of greater than 90 to 150)”. In test [2], the EC50 is below 500 nM and the “TR-FRET Assay Max Response” value was “*** (The symbol “***” indicates a value in the range of greater than 150 to 200)”.

Regarding `NS(=O)(=O)CCC(=O)NC[C@H]1CN(S(=O)(=O)c2cccc(C(F)(F)F)c2)c2cc(-c3cc(F)ccc3F)ccc2O1` [Compound 30AL, (S)-N-((6-(2,5-difluorophenyl)-4-((3-(trifluoromethyl)phenyl)-sulfonyl)-3,4-dihydro-2H-benzo[b][1,4]oxazin-2-yl)methyl)-3-sulfamoyl-propanamide], in test [1] (setting [3]), the EC50 was below 500 nM and the “Gal4-RORγ Assay Max Response” value is on record as “* (The symbol “*” indicates a value in the range of 25 to 90)”. Besides, in test [2], the half-maximal effective concentration (EC50) is below 500 nM and the “TR-FRET Assay Max Response” value is recorded as “**** (The symbol “****” indicates a value greater than 200)”.

Consider `COc1cc(F)cc(-c2ccc3c(c2)N(S(=O)(=O)c2cccc(C(F)(F)F)c2)C[C@H](CC(C)(C)C(=O)O)O3)c1` [Compound 32AG, (S)-3-(6-(3-fluoro-5-methoxy-phenyl)-4-((3-(trifluoromethyl)-phenyl)sulfonyl)-3,4-dihydro-2H-benzo[b][1,4]oxazin-2-yl)-2,2-dimethylpropanoic acid], for which, in test [1] (2 μM ursolic acid), the EC50 was below 500 nM and the “Gal4-RORγ Assay Max Response” value was “** (The symbol “**” indicates a value in the range of greater than 90 to 150)”. Besides, in test [2], the EC50 was below 500 nM and the “TR-FRET Assay Max Response” value is listed as “**** (The symbol “****” indicates a value greater than 200)”.

For `CC(C)(C[C@H]1CN(S(=O)(=O)c2cccc(C(F)(F)F)c2)c2cc(-c3cccc(F)c3C(F)(F)F)ccc2O1)C(=O)O` [Compound 32BC, (S)-3-(6-(3-fluoro-2-(trifluoromethyl)phenyl)-4-((3-(trifluoromethyl)phenyl)sulfonyl)-3,4-dihydro-2H-benzo[b][1,4]oxazin-2-yl)-2,2-dimethylpropanoic acid], in test [1] (2 μM ursolic acid), the EC50 is below 500 nM and the “Gal4-RORγ Assay Max Response” value was “** (The symbol “**” indicates a value in the range of greater than 90 to 150)”. Besides, in test [2], the EC50 was below 500 nM and the “TR-FRET Assay Max Response” value is “** (The symbol “**” indicates a value in the range of greater than 90 to 150)”.

As for `O=C(O)[C@@H]1C[C@H]1[C@H]1CN(S(=O)(=O)c2cccc(C(F)(F)F)c2)c2cc(-c3cc(F)cc(OC(F)F)c3)ccc2O1` [Compound 55, (1R,2R)-2-((S)-6-(3-(difluoromethoxy)-5-fluorophenyl)-4-((3-(trifluoromethyl)phenyl)sulfonyl)-3,4-dihydro-2H-benzo[b][1,4]oxazin-2-yl)cyclopropane-1-carboxylic acid], in test [1] (2 μM ursolic acid), the EC50 was below 500 nM and the “Gal4-RORγ Assay Max Response” value was “* (The symbol “*” indicates a value in the range of 25 to 90)”. Further, in test [2], the EC50 is below 500 nM and the “TR-FRET Assay Max Response” value is “** (The symbol “**” indicates a value in the range of greater than 90 to 150)”.

Turning to `O=C(NC[C@H]1CN(S(=O)(=O)c2cccc(C(F)(F)F)c2)c2cc(-c3cc(F)ccc3F)ccc2O1)C1(O)CC1` [Compound 30AG, (S)-N-((6-(2,5-difluorophenyl)-4-((3-(trifluoromethyl)phenyl)-sulfonyl)-3,4-dihydro-2H-benzo[b][1,4]oxazin-2-yl)methyl)-1-hydroxycyclo-propane-1-carboxamide], in test [1] (setting [3]), the EC50 is below 500 nM and the “Gal4-RORγ Assay Max Response” value was “** (The symbol “**” indicates a value in the range of greater than 90 to 150)”. Also, in test [2], the EC50 was below 500 nM and the “TR-FRET Assay Max Response” value is “*** (The symbol “***” indicates a value in the range of greater than 150 to 200)”.

As to `CN(C)c1cccc(-c2ccc3c(c2)N(S(=O)(=O)c2cccc(C(F)(F)F)c2)C[C@H](CNC(=O)C(C)(C)O)O3)n1` [Compound 30H, (S)-N-((6-(6-(dimethylamino)-pyridin-2-yl)-4-((3-(trifluoromethyl)phenyl)sulfonyl)-3,4-dihydro-2H-benzo[b][1,4]oxazin-2-yl)methyl)-2-hydroxy-2-methylpropanamide], in test [1] (setting [3]), the EC50 is below 500 nM and the “Gal4-RORγ Assay Max Response” value is given as “* (The symbol “*” indicates a value in the range of 25 to 90)”. Besides, in test [2], the EC50 was below 500 nM and the “TR-FRET Assay Max Response” value is reported as “**** (The symbol “****” indicates a value greater than 200)”.

On to `O=C(O)CC[C@H]1CN(S(=O)(=O)c2cccc(C(F)(F)F)c2)c2cc(-c3cccc(F)c3F)ccc2O1` [Compound 1, (S)-3-(6-(2,3-difluorophenyl)-4-((3-(trifluoromethyl)phenyl)sulfonyl)-3,4-dihydro-2H-benzo[b][1,4]oxazin-2-yl)propanoic acid], for which, in test [1] (setting [3]), the EC50 was below 500 nM and the “Gal4-RORγ Assay Max Response” value was “*** (The symbol “***” indicates a value in the range of greater than 150 to 200)”. In test [2], the EC50 was below 500 nM and the “TR-FRET Assay Max Response” value is reported as “*** (The symbol “***” indicates a value in the range of greater than 150 to 200)”.
